Reference: US20200368198A1, “METHODS FOR INCREASING FERTILITY” (NEWSOUTH INNOVATIONS PTY LIMITED, priority 2017, published 2020)
Where “and” joins values, the source holds several entries; their conditions need not be identical. Identical values can stand only once. Entries after “also recorded” stand apart in the source; their conditions may differ.

Legend:
[1] = tested on: C57BL6 and SwissTacAusb female mice; experiment: Oocyte yield in aged mice treated with NMN; format: in vivo; settings: 15 month-old mice, NMN drinking water 2 g/L, 4 weeks, versus untreated
Description: To assess oocyte yield, and mice were hormonally stimulated to superovulated by intraperitoneal injection with 7.5 IU/mL of Pregnant Mare's Serum Gonadotropin (PMSG) (Folligon; Intervet, Boxmeer, Holland) to stimulate follicular growth. After 44-46 hours, ovaries were collected in HEPES-buffered minimum essential medium (aMEM; Gibco Life Technologies, Grand Island, N.Y.) supplemented with 50 µM of 3-isobuty-1-methylxanthine (IBMX) (Sigma aldrich, NSW, AU) (M2 medium) to maintain meitotic arrest at germinal vesicle stage. Cumulus oocyte complexes (COCs) were isolated from preovulatory follicles using a 27-gauge needle and collected using flame-pulled borosilicate Pasteur pipettes in M2 medium supplemented with 3 mg/ml bovine serum albumin (BSA; Sigma Aldrich, St. Louis, Mo.) and 100 μM IBMX (Sigma Aldrich). […]
Systemic treatment with the NAD^+ precursor nicotinamide mononucleotide (NMN) increases intracellular NAD^+ levels, and we hypothesised that NMN treatment could restore the activity of SIRT2 to stabilise BubR1 and maintain oocyte reserve and competence into later ages. […] Animals were super-ovulated, and oocyte yield was assessed. […]

[2] = tested on: oocytes; experiment: Meiotic progression (GVBD, PBE) of harvested oocytes, doxorubicin with or without NMN; format: in vivo, mice; settings: doxorubicin and/or NMN
Description: Once harvested from ovaries, oocytes were stored in IBMX media to prevent progression into meiosis.

[3] = tested on: C57BL6 females; experiment: Reversal design: primordial follicle counts in ovarian histology sections; format: in vivo, mice; settings: doxorubicin 10 mg/kg i.p., NMN in drinking water started four weeks later for 4 weeks; per mouse
Description: (§1) Ovaries were dissected from freshly euthanased animals, and preserved in 10% neutral buffered formalin for 24 hr, followed by 70% ethanol, until embedding in paraffin blocks. Blocks were sectioned on a microtome and subjected to haematoxylin and eosin (H&E) staining. Primordial follicles were manually counted by a blinded investigator.
Next, we decided to investigate whether NMN treatment delivered some time following chemotherapy treatment could actively reverse chemotherapy induced infertility. […] Four weeks later, they received NMN in their drinking water, for another 4 weeks, prior to being euthanased for either oocyte studies or ovarian histological analysis. The rationale of this experimental design is to investigate whether NMN has the ability to induce regeneration of the ovary. According to the standard dogma of reproductive biology, mammals are born with a set number of follicles which are slowly released as oocytes over the course of a lifetime, with the ovaries incapable of regenerating new follicles.

[4] = tested on: ovaries; experiment: Histological analysis of ovaries from NMN treated females; format: in vivo, mice
Description: as §1
To determine the impact of NMN on spindle assembly, oocytes from C57BL6 mice were next stained for spindle structure (FIG. 3F).

[5] = tested on: oocytes; experiment: Meiotic progression (GVBD, PBE) of harvested oocytes, cisplatin with or without NMN; format: in vivo, mice; settings: cisplatin and/or NMN
Description: Once harvested from ovaries, oocytes were stored in IBMX media to prevent progression into meiosis. Once released from IBMX, meiotic progression was assessed by the proportions of oocytes achieving germinal vesicle breakdown (GVBD) for meiosis I, and polar body extrusion (PBE) for meiosis II, with results shown in FIGS. 7 and 8 and Tables 2 and 3.
Again, as in Example 2 above, the oocytes which were harvested from these studies were allowed to progress down meiosis, in order to assess meiotic progression rates (FIGS. 16 and 17 and Table 7 and 8).

[6] = tested on: C57BL6 female mice; experiment: Mating trial after doxorubicin with or without NMN co-treatment; format: in vivo; settings: for Number of mating rounds required to achieve pregnancy: the values are: cumulative % of females pregnant by round
Description: Following oocyte counting and analysis of oocyte meiotic progression, as well as a separate cohort of animals for histological ovarian analysis, a separate cohort of animals were treated as indicated, and mated with stud males of proven track record, to assess the ability of animals to deliver live births following chemotherapy treatment in the presence of absence of NMN co-treatment.

[7] = tested on: SwissTacAusb female mice; experiment: Oocyte yield in high fat fed mice treated with NMN; format: in vivo; settings: SwissTacAusb females, 3 months high fat feeding; NMN versus untreated high fat fed littermates
Description: Systemic treatment with the NAD^+ precursor nicotinamide mononucleotide (NMN) increases intracellular NAD^+ levels, and we hypothesised that NMN treatment could restore the activity of SIRT2 to stabilise BubR1 and maintain oocyte reserve and competence into later ages. We obtained 15 month-old female mice, an age at which this species is functionally infertile, and treated them with NMN through addition to drinking water (2 g/L) for 4 weeks. Animals were super-ovulated, and oocyte yield was assessed. […] Obesity is a major risk factor for female infertility, and to assess whether a similar mechanism was at work, we subjected young SwissTacAusb female mice to 3 months of high fat feeding, followed by NMN treatment for 4 weeks.

[8] = tested on: offspring of C57BL6 females; experiment: Offspring of NMN treated females: development and glucose tolerance; format: in vivo, mice; settings: offspring from NMN treated versus untreated females
Description: FIG. 5. Offspring from NMN treated females, or non-NMN treated females, were maintained on a chow diet or subjected to feeding of a high fat diet (HFD) from 8 weeks of age. A) is a graph of body weights of animals until 23 weeks of age. B) is a graph of fat mass of animals after 7 weeks of HFD feeding. C) is a graph of glucose tolerance test in animals at 7 weeks after chow or HFD feeding (2 g/kg, 6 hr fast). D) is a graph of area under the curve for glucose tolerance tests. Each group represents offspring from at least 7 different females. Error bars are SD.
To determine whether NMN treatment could improve overall, functional fertility, we conducted a breeding trial in C57BL6 mice. Both pregnancy success rates and litter size (FIG. 4A) were improved in animals that received NMN, further confirming the importance of this mechanism to female fertility. Offspring from females that received NMN treatment developed at a similar rate to offspring from untreated females, even after challenging with high fat feeding (FIG. 5A and 5B).

`NC(=O)c1ccc[n+]([C@@H]2O[C@H](COP(=O)([O-])O)[C@@H](O)[C@H]2O)c1` [NMN, nicotinamide mononucleotide] was tested, and the “COC (oocyte) yield in aged females” value [1] was “more than doubled; also recorded: dramatically increased”, the “Proportion of harvested oocytes achieving germinal vesicle breakdown” value ([2]; 1 h after release from IBMX) was 17 % of total and the “Proportion of harvested oocytes achieving germinal vesicle breakdown” value ([2]; 2 h after release from IBMX) was 67 % of total. The “Proportions of oocytes achieving polar body extrusion” value (shortened to “Proportions”) ([2]; 14 hr following GVBD) was 79, the “Proportions” value ([2]; 16 hr following GVBD) was 50 and the “Proportions” value ([2]; 20 hr following GVBD) was 80. For the same molecule, the “Primordial follicle numbers in ovarian histology sections” value [3] was 108 and 86 and 94 and 78, the “Oogonial reserve, histological analysis of ovaries” value [4] was “improved oogonial reserve” and the “Proportion of harvested oocytes achieving germinal vesicle breakdown” value ([5]; 1 h after release from IBMX) was 45 % of total. The “Proportion of harvested oocytes achieving germinal vesicle breakdown” value ([5]; 2 h after release from IBMX) was 83 % of total, the “Proportion of harvested oocytes achieving polar body extrusion” value ([5]; 14 hr following completion of GVBD) was 48 % of total and the “Proportion of harvested oocytes achieving polar body extrusion” value ([5]; 16 hr following completion of GVBD) was 60 % of total. For the same molecule, the “Proportion of harvested oocytes achieving polar body extrusion” value ([5]; 20 hr following completion of GVBD) was 91 % of total, the Number of mating rounds required to achieve pregnancy ([6]; Round 0) was 0% and the Number of mating rounds required to achieve pregnancy ([6]; Round 1) was 60%. The Number of mating rounds required to achieve pregnancy ([6]; Round 2) was 80%, the Number of mating rounds required to achieve pregnancy ([6]; Round 3) was 88% and the “Body weight of pups born to females receiving NMN” value ([6]; day 12 of age) was “no difference in body weight”. The “Oocyte yield in high fat fed mice” value [7] was “higher oocyte yield” and the “Glucose tolerance tests in offspring” value [8] was “no change”.
